Assay [1] deals with S. aureus ATCC 13709. Nature of the assay: MIC, S. aureus ATCC 13709 (Alamar Blue broth microdilution). The conditions noted are these: for MIC: Staphylococcus aureus, ATCC13709, S. aureus. Format: cell-based. (The colour change of resazurin is a common sign of viable cells or microbes.)
Assay [2] relates to E. coli ATCC 25922. The experiment in a line: MIC, E. coli ATCC 25922. Format: cell-based. The settings on record: for MIC: Escherichia coli, ATCC25922, E. coli.
Where [3] appears, read: S. aureus, Alamar Blue read after overnight incubation at 35° C.
Setting [4] is: E. coli, Alamar Blue read after overnight incubation at 35° C.
Where [5] appears, read: Alamar Blue read after overnight incubation at 35° C.

SMILES strings stand for the structures. ≈ marks a conversion by molar mass, not a printed value. Like-named read-outs stand apart in the source and are kept apart here.

For `CNc1cc(F)cc2c1[nH]c1nc(Oc3cnc(CN)nc3)nc(N3CC4CC3CC4N)c12` (centres unmarked) [4.393], the “MIC Sa” value in assay [1] (setting [3]) was at most 0.5 µg/mL. The “MIC Ec” value in assay [2] (setting [4]) was 1 µg/mL (≈ 2.22 µM).

In general, MIC refers to the lowest concentration found to suppress growth. A low value points to greater potency. As to `CNc1cc(F)cc2c1[nH]c1nc(Oc3cnc(N4CC(O)C4)nc3)nc(N3CC4C(N)C4C3)c12` (centres unmarked) [4.298], the minimal inhibitory concentration (MIC) in assay [1] (setting [5]) was at most 0.5 µg/mL; in assay [2] (setting [5]) it was 2 µg/mL (≈ 4.19 µM).

On to `CNc1cc(F)cc2c1[nH]c1nc(Oc3cnc(C)nc3)nc(-c3cn[nH]c3)c12` [4.418], for which the MIC in assay [1] (setting [5]) is at most 0.5 µg/mL; in assay [2] (setting [5]) it was 1 µg/mL (≈ 2.56 µM).

Consider `CNc1cc(F)cc2c1[nH]c1nc(Oc3cncnc3)nc(N3CC4C(CN)C4C3)c12` (centres unmarked) [4.004], for which the MIC in assay [1] (setting [5]) is at most 0.5 µg/mL; in assay [2] (setting [5]), 2 µg/mL (≈ 4.76 µM).

Consider `CNc1cc(F)cc2c1[nH]c1nc(Oc3cncc([S+](C)[O-])c3)nc(N3CC4C[C@@H](N)C4C3)c12` (some centres unmarked) [4.353], for which the minimum inhibitory concentration (MIC) in assay [1] (setting [5]) was at most 0.5 µg/mL; in assay [2] (setting [5]), 2 µg/mL (≈ 4.15 µM).

Take `CNc1cccc2c1[nH]c1nc(Oc3cncnc3)nc(N3CC4(CCNC4)C3)c12` [3.67]: the minimal inhibitory concentration (MIC) in assay [1] (setting [5]) was 16 µg/mL (≈ 39.8 µM); in assay [2] (setting [5]), 64 µg/mL (≈ 159 µM).

For `CNc1cc(F)cc2c1[nH]c1nc(Oc3cnc(C)nc3)nc(-c3cccnc3N)c12` [4.448], the MIC in assay [1] (setting [5]) is at most 0.5 µg/mL; in assay [2] (setting [5]), 1 µg/mL (≈ 2.4 µM).

In the case of `CNc1cc(F)c(C)c2c1[nH]c1nc(Oc3cnc(C)nc3)nc(NCCCN)c12` [6.21], the “MIC Sa” value in assay [1] was above 16 µg/mL. In addition, the “MIC Ec” value in assay [2] was above 16 µg/mL.

Take `CNc1cc(F)cc2c1[nH]c1nc(Oc3cnc(C)nc3)nc(N3CC4C(N)CC4(C)C3)c12` (centres unmarked) [4.150]: the “MIC Sa” value in assay [1] (setting [3]) is at most 0.5 µg/mL. The “MIC Ec” value in assay [2] (setting [4]) was 1 µg/mL (≈ 2.23 µM).

For the molecule `CNc1cc(F)cc2c1[nH]c1nc(Oc3ccc4c(c3)C(=O)NC43CC3)nc(N3CC4CC(N)C4C3)c12` (centres unmarked) [4.381], the “MIC Sa” value in assay [1] (setting [3]) stood at 4 µg/mL (≈ 8.01 µM). The “MIC Ec” value in assay [2] (setting [4]) was determined as 16 µg/mL (≈ 32 µM).

On to `COc1cccc2c1[nH]c1nc(Oc3cncc(C#N)c3)nc(N3CC4C(N)C4C3)c12` (centres unmarked) [2.15], for which, in assay [1] (setting [3]), the “MIC Sa” value was 1 µg/mL (≈ 2.42 µM). In addition, the “MIC Ec” value in assay [2] (setting [4]) is above 32 µg/mL.

Consider `CNc1cccc2c1[nH]c1nc(Oc3cncc(F)c3)nc(N3CC[C@@H](N)C3)c12` [3.6], for which the results for the minimal inhibitory concentration (MIC) in assay [1] (setting [5]) and in assay [2] (setting [5]) were 0.5 µg/mL (≈ 1.27 µM) and 1 µg/mL (≈ 2.54 µM), respectively.

With `CNc1cccc2c1[nH]c1nc(Oc3cncc(C#N)c3)nc(N3C[C@@H](N)C4(CC4)C3)c12` [3.44], the MIC in assay [1] (setting [5]) is 8 µg/mL (≈ 18.8 µM); in assay [2] (setting [5]) it was 16 µg/mL (≈ 37.5 µM).

Consider `CNc1cc(F)cc2c1[nH]c1nc(Oc3cncc(F)c3)nc(N3CC(N)C4(CC4)C3)c12` (centres unmarked) [4.056], for which the MIC in assay [1] (setting [5]) and in assay [2] (setting [5]) was at most 0.5 µg/mL in each case.

With `CNc1cc(F)cc2c1[nH]c1nc(Sc3cnc4cccnc4c3)nc(N3CC4C(N)C4C3)c12` (centres unmarked) [1.51], the minimal inhibitory concentration (MIC) in assay [1] (setting [5]) and in assay [2] (setting [5]) was at most 0.5 µg/mL each time.

Turning to `CNc1cccc2c1[nH]c1nc(Oc3cncc(F)c3)nc(N3CCC4(CNC4)C3)c12` [3.66], the values for the MIC in assay [1] (setting [5]) and in assay [2] (setting [5]) were 8 µg/mL (≈ 19.1 µM) and above 32 µg/mL, respectively.

In the case of `CCOC(=O)c1ncc(Oc2nc(N3CC4C[C@@H](N)C4C3)c3c(n2)[nH]c2c(NC)cc(F)cc23)cn1` (some centres unmarked) [4.401], the minimum inhibitory concentration (MIC) in assay [1] (setting [5]) and in assay [2] (setting [5]) was at most 0.5 µg/mL each time.

For the molecule `CNc1cc(F)cc2c1[nH]c1nc(Oc3cnc(C)nc3)nc(N3CC(NCCN)C4(CC4)C3)c12` (centres unmarked) [4.090], the “MIC Sa” value in assay [1] (setting [3]) is at most 0.5 µg/mL. Moreover, in assay [2] (setting [4]), the “MIC Ec” value amounted to 4 µg/mL (≈ 8.38 µM).

For the molecule `Nc1cccc2c1[nH]c1nc(Sc3cnc4ccc[n+]([O-])c4c3)nc(N3CC4C(N)C4C3)c12` (centres unmarked) [1.8], the MIC in assay [1] (setting [5]) was 64 µg/mL (≈ 140 µM); in assay [2] (setting [5]), above 64 µg/mL.

`CNc1cc(F)cc2c1[nH]c1nc(Oc3cnc(SC)nc3)nc(N3CC4C[C@@H](N)C4C3)c12` (some centres unmarked) [4.201]: the minimum inhibitory concentration (MIC) in assay [1] (setting [5]) and in assay [2] (setting [5]) was at most 0.5 µg/mL in each case.

`CNc1cccc2c1[nH]c1nc(Oc3cnc(OC)c(OC)c3)nc(N3CC[C@@H](N)C3)c12` [3.2]: the minimum inhibitory concentration (MIC) stood at 4 µg/mL (≈ 9.19 µM) in assay [1] (setting [5]) and 16 µg/mL (≈ 36.7 µM) in assay [2] (setting [5]).

For `CNc1cc(F)cc2c1[nH]c1nc(Oc3cnc4c(c3)OCCO4)nc(N3C[C@H](N)C4(CC4)C3)c12` [4.295], the MIC in assay [1] (setting [5]) and in assay [2] (setting [5]) was at most 0.5 µg/mL each time.
